14 compounds from PubChem BioAssay AID220 (DTP/NCI, 2004) can be followed below.

Several values for one entry are separate records, joined by “and”; a condition that tells them apart may be missing. Identical values can stand only once. Records with an inconclusive call do not appear.

This assay deals with CD8F1 mice, subcutaneous mammary adenocarcinoma, T/C%. In words: NCI In Vivo Anticancer Drug Screen. Data for tumor model Mammary Adenocarcinoma CD8F1 (subcutaneous) in CD8F1. Particulars: higher = larger tumour. In a few lines: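 Compound-treated versus vehicle-treated mice with transplantable tumors; survival or tumor size compared as T/C.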
Setting [1] is: endpoint: median tumor weight (est.), dose: 100.0 mg/kg/injection, schedule: Q07DX005 (ip), vehicle: Klucel (hydroxypropylcellulose) (HPC).
The mark [2] stands for this setting: endpoint: median tumor weight change, dose: 125.0 mg/kg/injection, schedule: Q01DX001 (ip), vehicle: Klucel (hydroxypropylcellulose) (HPC).
Where [3] appears, read: endpoint: median tumor weight change, dose: 250.0 mg/kg/injection, schedule: Q01DX001 (ip), vehicle: Klucel (hydroxypropylcellulose) (HPC).
The mark [4] stands for this setting: endpoint: median tumor weight change, dose: 500.0 mg/kg/injection, schedule: Q01DX001 (ip), vehicle: Klucel (hydroxypropylcellulose) (HPC).
The mark [5] stands for this setting: endpoint: median tumor weight change, dose: 125.0 mg/kg/injection, schedule: Q01DX001 (ip), vehicle: saline with Tween-80.
The mark [6] stands for this setting: endpoint: median tumor weight change, dose: 250.0 mg/kg/injection, schedule: Q01DX001 (ip), vehicle: saline with Tween-80.
Setting [7] is: endpoint: median tumor weight change, dose: 500.0 mg/kg/injection, schedule: Q01DX001 (ip), vehicle: saline with Tween-80.
The mark [8] stands for this setting: endpoint: median tumor weight change, dose: 62.5 mg/kg/injection, schedule: Q01DX001 (ip), vehicle: saline with Tween-80.
The mark [9] stands for this setting: endpoint: median tumor weight change, dose: 1000.0 mg/kg/injection, schedule: Q01DX001 (ip), vehicle: saline with Tween-80.

On to `c1ccc2c(c1)[As]=c1ccccc1=[As]2` (stereo unspecified), for which the T/C was 159 % of control (endpoint: median tumor weight change, dose: 60.0 mg/kg/injection, schedule: Q01DX001 (ip), vehicle: saline with Tween-80); 158 % of control (endpoint: median tumor weight change, dose: 120.0 mg/kg/injection, schedule: Q01DX001 (ip), vehicle: saline with Tween-80); 31 % of control (endpoint: median tumor weight change, dose: 240.0 mg/kg/injection, schedule: Q01DX001 (ip), vehicle: saline with Tween-80).
Take `Cn1cnc([N+](=O)[O-])c1SCC(=O)O`: the T/C runs as follows: under setting [1], 100 % of control; (endpoint: median tumor weight (est.), dose: 200.0 mg/kg/injection, schedule: Q07DX005 (ip), vehicle: Klucel (hydroxypropylcellulose) (HPC)) 107 % of control; (endpoint: median tumor weight (est.), dose: 400.0 mg/kg/injection, schedule: Q07DX005 (ip), vehicle: Klucel (hydroxypropylcellulose) (HPC)) 166 % of control; (endpoint: median tumor weight (est.), dose: 800.0 mg/kg/injection, schedule: Q07DX005 (ip), vehicle: Klucel (hydroxypropylcellulose) (HPC)) 65 % of control; (endpoint: median tumor weight change, dose: 62.5 mg/kg/injection, schedule: Q01DX001 (ip), vehicle: Klucel (hydroxypropylcellulose) (HPC)) 75 % of control; under setting [2], 72 % of control. Besides, the T/C by setting is: under setting [3], 76 % of control; under setting [4], 74 % of control; (endpoint: median tumor weight change, dose: 1000.0 mg/kg/injection, schedule: Q01DX001 (ip), vehicle: Klucel (hydroxypropylcellulose) (HPC)) 60 % of control; (endpoint: median tumor weight change, dose: 2000.0 mg/kg/injection, schedule: Q01DX001 (ip), vehicle: Klucel (hydroxypropylcellulose) (HPC)) 68 % of control.
With `O=c1c(O)c(-c2cc(O)c(O)c(O)c2)oc2cc(O)cc(O)c12`, the T/C by setting is: (endpoint: median tumor weight (est.), dose: 12.5 mg/kg/injection, schedule: Q07DX005 (ip), vehicle: other) 85 % of control; (endpoint: median tumor weight (est.), dose: 25.0 mg/kg/injection, schedule: Q07DX005 (ip), vehicle: other) 85 % of control; (endpoint: median tumor weight (est.), dose: 50.0 mg/kg/injection, schedule: Q07DX005 (ip), vehicle: other) 122 % of control; (endpoint: median tumor weight (est.), dose: 100.0 mg/kg/injection, schedule: Q07DX005 (ip), vehicle: other) 70 % of control; (endpoint: median tumor weight (est.), dose: 200.0 mg/kg/injection, schedule: Q07DX005 (ip), vehicle: other) 89 % of control; (endpoint: median tumor weight (est.), dose: 400.0 mg/kg/injection, schedule: Q07DX005 (ip), vehicle: other) 70 % of control. For the same compound, the T/C was 61 % of control under setting [5], 46 % of control under setting [6] and 40 % of control under setting [7].
For the compound `CCOC(=O)C1C2OC(=O)C(C(=O)C2CN(CCCl)CCCl)C1C1CC=C(CC2=CCC(C3C4C(=O)OC(C(CN(CCCl)CCCl)C4=O)C3C(=O)OCC)CC2)CC1` (stereo unspecified), the T/C was 49 % of control (endpoint: median tumor weight (est.), dose: 12.5 mg/kg/injection, schedule: Q07DX005 (ip), vehicle: Klucel (hydroxypropylcellulose) (HPC)); 70 % of control (endpoint: median tumor weight (est.), dose: 25.0 mg/kg/injection, schedule: Q07DX005 (ip), vehicle: Klucel (hydroxypropylcellulose) (HPC)); 31 % of control (endpoint: median tumor weight (est.), dose: 50.0 mg/kg/injection, schedule: Q07DX005 (ip), vehicle: Klucel (hydroxypropylcellulose) (HPC)); 1 % of control under setting [1].
On to `CCN(CC)CCNc1ccc(C)c2sc3ccc(O)cc3c(=O)c12`, for which the T/C by setting is: under setting [8], 59 % of control; under setting [5], 169 % of control; (endpoint: median tumor weight change, dose: 684.0 mg/kg/injection, schedule: Q01DX001 (ip), vehicle: saline with Tween-80) 37 % of control.
Turning to `CC[C@H]1CN2CCc3cc(OC)c(OC)cc3[C@@H]2C[C@@H]1C[C@@H]1c2cc(OC)c(OC)cc2CCN1CCN(CCCl)CCCl`, the T/C (endpoint: mean tumor weight, dose: 2.5 mg/kg/injection, schedule: Q07DX005 (ip), vehicle: Klucel (hydroxypropylcellulose) (HPC)) is 195 % of control; the T/C (endpoint: mean tumor weight, dose: 5.0 mg/kg/injection, schedule: Q07DX005 (ip), vehicle: Klucel (hydroxypropylcellulose) (HPC)) is 181 % of control; the T/C (endpoint: mean tumor weight, dose: 5.0 mg/kg/injection, schedule: Q07DX006 (ip), vehicle: Klucel (hydroxypropylcellulose) (HPC)) was 89 % of control; the T/C (endpoint: mean tumor weight, dose: 10.0 mg/kg/injection, schedule: Q07DX005 (ip), vehicle: Klucel (hydroxypropylcellulose) (HPC)) was 160 % of control; the T/C (endpoint: mean tumor weight, dose: 10.0 mg/kg/injection, schedule: Q07DX006 (ip), vehicle: Klucel (hydroxypropylcellulose) (HPC)) is 169 % of control; the T/C (endpoint: mean tumor weight, dose: 20.0 mg/kg/injection, schedule: Q07DX006 (ip), vehicle: Klucel (hydroxypropylcellulose) (HPC)) was 159 % of control.
With `O=[N+]([O-])c1ccc(-n2[nH]nnc2=S)cc1`, the T/C was 101 % of control and 119 % of control under setting [5]; 112 % of control under setting [6].
For `COc1cc(NCCCCCCCNC(C)C)c2nccc(C)c2c1`, the T/C is, setting by setting: (endpoint: median tumor weight change, dose: 31.25 mg/kg/injection, schedule: Q01DX001 (ip), vehicle: saline) 70 % of control; (endpoint: median tumor weight change, dose: 62.5 mg/kg/injection, schedule: Q01DX001 (ip), vehicle: saline) 72 % of control.
Take `BrC1CC(Br)c2c1c1c(c3c2C(Br)CC3Br)C(Br)CC1Br` (stereo unspecified): the T/C by setting is: (endpoint: median tumor weight (est.), dose: 12.5 mg/kg/injection, schedule: Q07DX005 (ip), vehicle: saline with Tween-80) 87 % of control; (endpoint: median tumor weight (est.), dose: 25.0 mg/kg/injection, schedule: Q07DX005 (ip), vehicle: saline with Tween-80) 210 % of control and 98 % of control; (endpoint: median tumor weight (est.), dose: 100.0 mg/kg/injection, schedule: Q07DX005 (ip), vehicle: saline with Tween-80) 86 % of control; (endpoint: median tumor weight (est.), dose: 200.0 mg/kg/injection, schedule: Q07DX005 (ip), vehicle: saline with Tween-80) 71 % of control and 75 % of control; (endpoint: median tumor weight (est.), dose: 400.0 mg/kg/injection, schedule: Q07DX005 (ip), vehicle: saline with Tween-80) 40 % of control; under setting [6], 85 % of control. Further, the T/C by setting is: under setting [7], 88 % of control; under setting [9], 59 % of control; (endpoint: median tumor weight change, dose: 2000.0 mg/kg/injection, schedule: Q01DX001 (ip), vehicle: saline with Tween-80) 51 % of control.
For `NC(=O)c1csc(C2OC(CO)C(O)C2O)n1` (stereo unspecified), the T/C was 87 % of control and 96 % of control (endpoint: median tumor weight change, dose: 125.0 mg/kg/injection, schedule: Q01DX001 (ip), vehicle: water); 11 % of control and 35 % of control (endpoint: median tumor weight change, dose: 500.0 mg/kg/injection, schedule: Q01DX001 (ip), vehicle: water); 55 % of control (endpoint: median tumor weight change, dose: 2000.0 mg/kg/injection, schedule: Q01DX001 (ip), vehicle: water).
`Nc1ncnc2c1ncn2C1C=C(CO)C(O)C1O` (stereo unspecified): the T/C was 63 % of control (endpoint: median tumor weight change, dose: 2.5 mg/kg/injection, schedule: Q01DX001 (ip), vehicle: saline); 113 % of control (endpoint: median tumor weight change, dose: 2.5 mg/kg/injection, schedule: Q01DX001 (ip), vehicle: suspension in saline); 107 % of control (endpoint: median tumor weight change, dose: 5.0 mg/kg/injection, schedule: Q01DX001 (ip), vehicle: saline); 115 % of control (endpoint: median tumor weight change, dose: 5.0 mg/kg/injection, schedule: Q01DX001 (ip), vehicle: suspension in saline); 100 % of control (endpoint: median tumor weight change, dose: 10.0 mg/kg/injection, schedule: Q01DX001 (ip), vehicle: saline); 86 % of control (endpoint: median tumor weight change, dose: 20.0 mg/kg/injection, schedule: Q01DX001 (ip), vehicle: saline). In addition, the T/C runs as follows: (endpoint: median tumor weight change, dose: 20.0 mg/kg/injection, schedule: Q01DX001 (ip), vehicle: suspension in saline) 39 % of control; (endpoint: median tumor weight change, dose: 40.0 mg/kg/injection, schedule: Q01DX001 (ip), vehicle: saline) 40 % of control.
Consider `COc1cc(C(C)(C)C)cc(OC)c1C(O)(c1c(OC)cc(C(C)(C)C)cc1OC)c1c(OC)cc(C(C)(C)C)cc1OC`, for which the T/C is, setting by setting: under setting [8], 102 % of control; under setting [2], 98 % of control; under setting [3], 62 % of control; under setting [6], 48 % of control and 70 % of control; under setting [4], 67 % of control; under setting [7], 37 % of control and 46 % of control. The T/C under setting [9] was 17 % of control.
For `CCCCCC#CC1OC12CCCCC2` (stereo unspecified), the T/C (endpoint: median tumor weight change, dose: 100.0 mg/kg/injection, schedule: Q01DX001 (ip), vehicle: saline with Tween-80) is 37 % of control; the T/C (endpoint: median tumor weight change, dose: 200.0 mg/kg/injection, schedule: Q01DX001 (ip), vehicle: saline with Tween-80) was 106 % of control; the T/C (endpoint: median tumor weight change, dose: 400.0 mg/kg/injection, schedule: Q01DX001 (ip), vehicle: saline with Tween-80) was 51 % of control; the T/C (endpoint: median tumor weight change, dose: 800.0 mg/kg/injection, schedule: Q01DX001 (ip), vehicle: saline with Tween-80) was 100 % of control.
In the case of `C=C(C)C1C2CC3(C)C4(CO4)C4OC4C3(O)C1C(=O)O2` (stereo unspecified), under “endpoint: median tumor weight change, dose: 1.25 mg/kg/injection, schedule: Q01DX001 (ip), vehicle: Klucel (hydroxypropylcellulose) (HPC)”, the T/C is 85 % of control.
